ChEMBL document CHEMBL4483862, “Open-source discovery of chemical leads for next-generation chemoprotective antimalarials” (2018)

Tested on: Plasmodium berghei
Assay: Luciferase/luciferin-expressing antifolate-resistant parasites were used to infect a culture of HepG2 cells that were pre-incubated with compounds. Infected hepatocytes emit light due to the luciferase reaction. Assay results are presented as the percent inhibition of light emission compared to control. […]
Type: functional
Conditions: sporozoite; for IC90: read-out: LUCIFERASE INFECTION ASSAY - IC90
[1] = read-out: LUCIFERASE INFECTION ASSAY - IC50

SMILES	IC90	IC50 [1]	also measured
CCOC(=O)c1oc2ccccc2c1CSc1nc2ccccc2c(=O)n1Cc1ccccc1	4.13 µM	–	IC50 (FFLUC_HILL_SLOPE 1.98, FFLUC_R_SQUARED 0.579, HEPG2TOX_HILL_SLOPE 1.74, HEPG2TOX_R_SQUARED 0.914, PBLUC_HILL_SLOPE 15.9, PBLUC_R_SQUARED 0.125, read-out: LUCIFERASE INFECTION ASSAY - IC50): 3.6 µM
CCN(CC)c1ccc(/C=C2\CCc3cnn(-c4nc(-c5ccccc5)cs4)c32)cc1	> 10 µM	–	IC50 (FFLUC_HILL_SLOPE 3.85, FFLUC_R_SQUARED 0.639, read-out: LUCIFERASE INFECTION ASSAY - IC50): > 10 µM
O=[N+]([O-])c1ccc(CSc2nc3cc(Cl)c(F)cc3[nH]2)cc1	> 7.88 µM	> 7.88 µM	–
O=S(=O)(c1ccc(C2=NNC(=NC3CC3)SC2)cc1)N1CCCCC1	> 10 µM	> 10 µM	–
CN(/N=C/c1cc(Cl)cc(Cl)c1O)C(=S)NC(C)(C)C	> 9.87 µM	> 9.87 µM	–
Nc1ncc(-c2cccc(O)c2)cc1-c1cccc(C(F)(F)F)c1	3.76 µM	–	IC50 (HEPG2TOX_HILL_SLOPE 7.78, HEPG2TOX_R_SQUARED 0.72, PBLUC_HILL_SLOPE 13.3, PBLUC_R_SQUARED 0.696, read-out: LUCIFERASE INFECTION ASSAY - IC50): 3.18 µM
CCOC(=O)c1nc(N(CCc2ccccc2)C(=O)c2cnc3c(cnn3C(C)C)c2)sc1C	> 10 µM	> 10 µM	–
Cc1ccc(C(C)CCN2CCC3(CC2)C(=O)N(C2Cc4ccccc4C2)C(=O)N3CC(C)C)o1 (centres undefined)	> 6.91 µM	–	IC50 (HEPG2TOX_HILL_SLOPE 5.24, HEPG2TOX_R_SQUARED 0.932, PBLUC_HILL_SLOPE 15.5, PBLUC_R_SQUARED 0.389, read-out: LUCIFERASE INFECTION ASSAY - IC50): 6.38 µM
Cc1cc(C)n(CCCNC(=O)Cc2c(C)nc3ncnn3c2C)n1	> 10 µM	> 10 µM	–
CN(CCC#N)C(=S)NCCc1ccccc1	> 10 µM	> 10 µM	–
CCc1ccc(C2=NN=C(Nc3cccc(S(=O)(=O)N(C)C)c3)SC2)cc1	9.95 µM	–	IC50 (FFLUC_HILL_SLOPE 1.2, FFLUC_R_SQUARED 0.399, HEPG2TOX_HILL_SLOPE 10.6, HEPG2TOX_R_SQUARED 0.97, PBLUC_HILL_SLOPE 5.57, PBLUC_R_SQUARED 0.702, read-out: LUCIFERASE INFECTION ASSAY - IC50): 6.71 µM
CC1CN(CC(O)COCc2ccc(Cl)cc2)CCN1CC(O)COCc1ccc(Cl)cc1 (centres undefined)	> 10 µM	–	IC50 (HEPG2TOX_HILL_SLOPE 0.385, HEPG2TOX_R_SQUARED 0.947, PBLUC_HILL_SLOPE 12.7, PBLUC_R_SQUARED 0.144, read-out: LUCIFERASE INFECTION ASSAY - IC50): 9.06 µM
Cc1[nH]c2ccccc2c1C(=O)C(C)Sc1ccc2c(c1)OCCCO2 (centres undefined)	> 10 µM	–	IC50 (PBLUC_HILL_SLOPE 1.73, PBLUC_R_SQUARED 0.284, read-out: LUCIFERASE INFECTION ASSAY - IC50): 3.18 µM
CC(NC(=O)c1cc(-c2ccc3c(c2)OCCO3)nc2c1cnn2C(C)C)c1nc2ccccc2[nH]1 (centres undefined)	> 10 µM	–	IC50 (PBLUC_HILL_SLOPE 1.49, PBLUC_R_SQUARED 0.0633, read-out: LUCIFERASE INFECTION ASSAY - IC50): > 10 µM
COc1cc(-c2cnc3sc(NCC4CCOCC4)nn23)ccc1O	> 9.16 µM	> 9.16 µM	–
Cc1c(C(=O)OCC(=O)c2cc(C)n(-c3cccc(F)c3)c2C)sc2nc3n(c(=O)c12)CCC3	> 10 µM	> 10 µM	–
CC(C)CC(N)c1csc(NC(=O)NC(c2ccccc2)c2ccccc2)n1 (centres undefined)	3.63 µM	2.93 µM	–
CC(C)(C)c1ccc(C(=O)ONC(=O)c2ccc(Cl)c(Cl)c2)cc1	> 9.01 µM	> 9.01 µM	–
COc1cc(-c2nc3ccc(NC(=O)c4cccnc4)cn3n2)cc(OC)c1OC	> 10 µM	–	IC50 (PBLUC_HILL_SLOPE 1.26, PBLUC_R_SQUARED 0.59, read-out: LUCIFERASE INFECTION ASSAY - IC50): 6.96 µM
COC(=O)c1sccc1N/N=C(\C#N)S(=O)(=O)c1ccc(Cl)cc1	> 8.6 µM	> 8.6 µM	–
CC(C)c1ccccc1-n1c(SCC(=O)N2CCc3ccccc3C2)nc2ccccc2c1=O	> 10 µM	–	IC50 (FFLUC_HILL_SLOPE 14.4, FFLUC_R_SQUARED 0.575, read-out: LUCIFERASE INFECTION ASSAY - IC50): > 10 µM
c1ccc(SCc2ccc(-c3nc4ccccc4s3)cc2)nc1	8.53 µM	–	IC50 (HEPG2TOX_HILL_SLOPE 2.39, HEPG2TOX_R_SQUARED 0.939, PBLUC_HILL_SLOPE 0.884, PBLUC_R_SQUARED 0.644, read-out: LUCIFERASE INFECTION ASSAY - IC50): 0.71 µM
